Experiments:
Type in all cases: biochemical
catalase [1] = target: T1, catalase (Bos taurus, UniProt P00432); assay: amperometric; conditions: read-out: % increase at 400 μM
T1 sequence (P00432 2-527): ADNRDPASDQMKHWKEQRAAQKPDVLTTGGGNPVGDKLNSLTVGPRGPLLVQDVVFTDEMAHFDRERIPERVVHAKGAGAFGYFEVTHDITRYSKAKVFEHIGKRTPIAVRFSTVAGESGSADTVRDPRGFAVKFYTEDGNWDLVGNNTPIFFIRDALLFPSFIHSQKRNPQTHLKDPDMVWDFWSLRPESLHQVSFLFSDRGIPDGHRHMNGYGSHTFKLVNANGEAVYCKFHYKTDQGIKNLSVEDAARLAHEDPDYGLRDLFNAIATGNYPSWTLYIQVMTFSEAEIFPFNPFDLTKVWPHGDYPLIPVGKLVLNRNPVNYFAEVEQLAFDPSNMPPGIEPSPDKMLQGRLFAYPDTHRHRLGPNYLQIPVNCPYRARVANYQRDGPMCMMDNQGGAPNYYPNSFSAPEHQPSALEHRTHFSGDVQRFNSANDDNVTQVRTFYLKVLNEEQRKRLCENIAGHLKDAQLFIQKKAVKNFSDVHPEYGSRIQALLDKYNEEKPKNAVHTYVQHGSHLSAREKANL

catalase [2] = target: T1, catalase; assay: amperometric H2S release from DTT by isolated catalase
catalase [3] = target: T1, catalase; assay: amperometric H2S release from SO2

SMILES: NC(=O)C1=CN([C@@H]2O[C@H](COP(=O)(O)OP(=O)(O)OC[C@H]3O[C@@H](n4cnc5c(N)ncnc54)[C@H](OP(=O)(O)O)[C@@H]3O)[C@@H](O)[C@H]2O)C=CC1 [NADPH]
- activation at 400 µM (catalase [1]): ~50%

SMILES: O[C@H](CS)[C@H](O)CS (racemic) [DTT, dithiothreitol]
- amperometric H2S release from DTT by isolated catalase (catalase [2]): catalase concentration-dependent increase in H2S release (Fig. 7B) confirming that catalase reacts directly with DTT to generate H2S

SMILES: O=S=O [SO2, sulfur dioxide]
- EC50 (catalase [3]): ~ between 300 μM and 1 mM

From PMC5350573 (Redox Biology, 2017)
